The values below come from patent US20230067159A1, “ROR-GAMMA-T INHIBITOR, PREPARATION METHOD THEREOF AND USE THEREOF” (priority 2020, published 2023).

In this assay the target is T1, RORγ (Homo sapiens, UniProt P51449).
T1 construct: The concentration of B-RORγ LBD was 40 nM
T1 sequence (P51449 269-508 limits assumed): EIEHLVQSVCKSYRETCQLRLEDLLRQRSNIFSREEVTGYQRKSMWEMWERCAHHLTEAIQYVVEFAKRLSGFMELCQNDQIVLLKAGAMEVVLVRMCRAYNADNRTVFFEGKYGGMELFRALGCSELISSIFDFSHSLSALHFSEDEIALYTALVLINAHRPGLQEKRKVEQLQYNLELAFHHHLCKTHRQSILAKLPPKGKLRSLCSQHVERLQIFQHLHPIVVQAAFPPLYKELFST
In words: Fluorescence resonance energy transfer (FRET) test, B-RORγ LBD / Biotin-SRC1. It is filed as biochemical. The procedure: Biological Example 1 Fluorescence Resonance Energy Transfer (FRET) Test
(1) Preparation of RORγ Test Buffer and 10 mM of DTT
100 mL of 1× Basic test buffer (HEPES (pH 7.4), 100 mM NaCl, 0.01% BSA) was prepared, and 154.25 mg of DTT was added. The mixture was well mixed.
(2) Preparation of Compound with Gradient Concentration
a. Standard compound was prepared: Standard compound was diluted with 100% DMSO to 2.5 mM, then diluted 3-fold with 11 serial dilutions to a final concentration of […];
b. Test compound was prepared referring to the standard compound.
(3) Preparation of 1× Protein Solution Mixture
a. Preparation of the desired amount of 2× B-RORγ LBD/SA-APC protein mixture: The concentration of B-RORγ LBD was 40 nM, and the concentration of SA-APC was 20 nM. They were mixed by gently inversion, and incubated at room temperature for 15 minutes. Then 400 nM of biotin was added. The mixture was mixed by gently inversion, and incubated at room temperature for 10 minutes;
b. Preparation of the desired amount of 2× Biotin-SRC1/SA-eu protein mixture: The concentration of Bioin-SRC1 was 40 nM, and the concentration of SA-eu was 20 nM. They were mixed by gently inversion, and incubated at room temperature for 15 minutes. Then 200 nM of biotin was added. The mixture was mixed by gently inversion, and incubated at room temperature for 10 minutes;
c. The protein mixtures prepared in step a and step b were mixed at a ratio of 1:1, and incubated at room temperature for 5 minutes;
d. 25 μL of the mixture from step c was added to the 384-well plate containing the test compound;
e. The mixture was centrifuged at 1000 rpm for one minute;
f. The mixture was incubated for 1 hour at room temperature.
(4) Data Collection and Calculation
After incubation at room temperature for 1 hour, the fluorescence values at 665 nm and 615 nm were measured with an EnVision plate reader, and the inhibition rate was calculated.
Inhibition rate %)=[(X−Min)/(Max−Min)]×100%
X is the fluorescence value ratio of “665/615” of the test compound; Min is the average value of “665/615” of the DMSO blank control; Max is the average value of “665/615” of the 10 μM SRC.

SMILES strings stand for the structures. Where two headings read alike, the source gives them in different places.

Usually IC50 stands for the concentration that gives 50% inhibition. For `CCS(=O)(=O)c1ccc(CNC(=O)c2ccc(N3CC(Cc4ccc(C(F)(F)F)cc4)C[C@H]3COC)cc2)cc1` (stereo partly drawn) [Example 7, N-(4-(ethylsulfonyl)benzyl)-4-((2S)-2-(methoxymethyl)-4-(4-(trifluoromethyl)benzyl)pyrrolidin-1-yl)benzamide], the IC50 worked out at 8.5 nM. On the same count and under the same terms, the same measure for `CCCOC[C@@H]1C[C@@H](Oc2ccc(C(F)(F)F)cc2)CN1c1ccc(C(=O)N[C@@H](CO)c2ccc(S(=O)(=O)CC)cc2)cc1` [Example 27, N—((R)-1-(4-(ethylsulfonyl)phenyl)-2-hydroxyethyl)-4-((2S,4R)-2-(propoxymethyl)-4-(4-(trifluoromethyl)phenoxy)pyrrolidin-1-yl)benzamide]: 20.8 nM; for `CCS(=O)(=O)c1ccc([C@H](CO)NC(=O)c2ccc(N3C[C@@H](Oc4ccc(C(F)(F)F)cc4)C[C@H]3COC(F)(F)F)cc2C#N)cc1` [Example 96, 2-cyano-N—((R)-1-(4-(ethylsulfonyl)phenyl)-2-hydroxyethyl)-4-((2S,4S)-2-((trifluoromethoxy)methyl)-4-(4-(trifluoromethyl)phenoxy)pyrrolidin-1-yl)benzamide]: 64 nM; for `[2H]C([2H])([2H])OC[C@@H]1C[C@H](Oc2ccc(C(F)(F)F)cc2)CN1c1ccc(C(=O)NCc2ccc(S(=O)(=O)CC)cc2)cc1` [Example 109, N-(4-(ethylsulfonyl)benzyl)-4-((2S,4S)-2-(3,3,3-d3-methoxymethyl)-4-(4-(trifluoromethyl)phenoxy)pyrrolidin-1-yl)benzamide]: 6.4 nM.

In turn, `CCS(=O)(=O)c1ccc([C@H](CCO)NC(=O)c2ccc(N3CC(Oc4ccc(OC(F)F)cc4)C[C@H]3COC(F)F)cc2)cc1` (stereo in doubt) [Example 114, 4-((2S,4S)-2-((difluoromethoxy)methyl)-4-(4-(difluoromethoxy)phenoxy)pyrrolidin-1-yl)-N—((S)-1-(4-(ethylsulfonyl)phenyl)-3-hydroxypropyl)benzamide] returned an IC50 of 2 nM. On the same count and under the same terms, the figure for `CCS(=O)(=O)c1ccc([C@H](CO)NC(=O)c2cnc(N3C[C@H](Oc4ccc(C(F)(F)F)cc4)C[C@H]3COC(F)(F)F)nc2)cc1` [Example 95, N—((R)-1-(4-(ethylsulfonyl)phenyl)-2-hydroxyethyl)-2-((2S,4R)-2-((trifluoromethoxy)methyl)-4-(4-(trifluoromethyl)phenoxy)pyrrolidin-1-yl)pyrimidine-5-carboxamide] is 45 nM; for `CCC(F)(F)OC[C@@H]1C[C@H](Oc2ccc(C(F)(F)F)cc2)CN1c1ccc(C(=O)N[C@@H](CO)c2ccc(S(=O)(=O)CC)cn2)cn1` [Example 74] it is 11 nM. Take `CCS(=O)(=O)c1ccc([C@H](CO)NC(=O)c2ccc(N3C[C@H](Oc4ccc(C(F)(F)F)cc4)C[C@H]3COC(C)(F)F)cc2)cc1` [Example 42]: for the setting “inhibitory activity of RORγ at the molecular level, FRET 665/615, read-out: IC50”, the IC50 worked out at 17.8 nM.

For the compound `CCS(=O)(=O)c1ccc(CNC(=O)c2ccc(N3CCC(Cc4ccc(C(F)(F)F)cc4)C3)cc2)cc1` (stereo not drawn) [Example 2], inhibition was half-maximal at 14 nM (IC50). The compound `CCS(=O)(=O)c1ccc([C@H](CO)NC(=O)c2ccc(N3C[C@H](Oc4ccc(C(F)(F)F)cc4)C[C@H]3CCOC(F)F)cc2)cc1` [Example 46] had an IC50 of 13.2 nM. As for `CCS(=O)(=O)c1ccc([C@H](CO)NC(=O)c2ccc(N3CC[C@H](Oc4ccc(C(F)(F)F)cc4)C3)cc2)cc1` [Example 14, N—((R)-1-(4-(ethylsulfonyl)phenyl)-2-hydroxyethyl)-4-((S)-3-(4-(trifluoromethyl)phenoxy)pyrrolidin-1-yl)benzamide], the half-maximal inhibitory concentration (IC50) came out at 20 nM.

With `CCS(=O)(=O)c1ccc([C@H](CO)NC(=O)c2ccc(N3C[C@@H](Oc4ccc(C(F)(F)F)cc4)C[C@H]3COC(F)F)c(F)c2)cc1` [Example 85], the IC50 was found to be 4.5 nM.

The compound `CCS(=O)(=O)c1ccc([C@H](CO)NC(=O)c2ccc(N3C[C@@H](Oc4ccc(C(F)(F)F)cc4)C[C@H]3CCOC(F)F)cc2)cc1` [Example 47] came in with a half-inhibitory concentration (IC50) of 4.6 nM. Same read-out and setting: the same measure for `CCS(=O)(=O)c1ccc([C@H](CO)NC(=O)c2ccc(N3C[C@@H](Oc4ccc(C(F)(F)F)cc4)C[C@H]3COC(F)F)cc2F)cc1` [Example 86]: 6 nM. `CCS(=O)(=O)c1ccc([C@H](CCO)NC(=O)c2cnc(N3C[C@@H](Oc4ccc(OC(F)(F)F)cc4)C[C@H]3COC(F)F)c(F)c2)cc1` [Example 116] gave an IC50 of 10 nM.

Take `CCS(=O)(=O)c1ccc([C@H](CO)NC(=O)c2cnc(N3C[C@H](Oc4ccc(C(F)(F)F)cc4)C[C@H]3COCC3CC3)nc2)cc1` [Example 60]: the IC50 was found to be 33.8 nM. On the same count and under the same terms, the same measure for `CCOC[C@@H]1CC(Oc2ccc(C(F)(F)F)cc2)CN1c1ccc(C(=O)NCc2ccc(S(=O)(=O)CC)cc2)cc1` (stereo partly drawn) [Example 19]: 18.6 nM; for `CCS(=O)(=O)c1ccc([C@@H](CO)NC(=O)c2ccc(N3C[C@@H](Oc4ccc(C(F)(F)F)cc4)C[C@H]3COC(F)F)cc2)cc1` [Example 98]: 17 nM; for `CCS(=O)(=O)c1ccc([C@H](CO)NC(=O)c2ccc(N3C[C@@H](Oc4ccc(C(F)(F)F)cc4)C[C@H]3COC(F)F)cc2OC)cc1` [Example 90]: 30 nM. The compound `CCS(=O)(=O)c1ccc([C@H](CO)NC(=O)c2ccc(N3CC[C@H](Oc4ccc(C(F)(F)F)cc4)C3)c(F)c2)cc1` [Example 79, N—((R)-1-(4-(ethylsulfonyl)phenyl)-2-hydroxyethyl)-3-fluoro-4-((S)-3-(4-(trifluoromethyl)phenoxy)pyrrolidin-1-yl)benzamide] showed an IC50 of 13 nM. In turn, `CCS(=O)(=O)c1ccc([C@H](CCOP(=O)(O)O)NC(=O)c2ccc(N3C[C@@H](Oc4ccc(OC(F)(F)F)cc4)C[C@H]3COC(F)F)cc2)cc1` [Example 125, sodium (S)-3-(4-((2S,4S)-2-((difluoromethoxy)methyl)-4-(4-(trifluoromethoxy)phenoxy)pyrrolidin-1-yl)benzamino)-3-(4-(ethylsulfonyl)phenyl)propyl phosphate] came in with a half-inhibitory concentration (IC50) of 140 nM. Still for that read-out and setting: the same measure for `CCS(=O)(=O)c1ccc([C@H](CO)NC(=O)c2ccc(N3C[C@@H](Oc4ccc(C(F)(F)F)cc4)C[C@H]3COC(F)F)nc2)cc1` [Example 53]: 3 nM; for `CCS(=O)(=O)c1ccc([C@H](CO)NC(=O)c2ccc(N3C[C@@H](Oc4ccc(C(F)(F)F)cc4)C[C@H]3COC(F)F)nc2)nc1` [Example 70]: 7.6 nM; for `CCS(=O)(=O)c1ccc(CNC(=O)c2ccc(N3C[C@@H](Oc4ccc(OC(F)(F)F)cn4)C[C@H]3COC(F)F)cc2)cc1` [Example 107]: 78 nM. For the compound `CCS(=O)(=O)c1ccc([C@H](CO)NC(=O)c2cnc(N3C[C@@H](Oc4ccc(C(F)(F)F)cc4)C[C@H]3COC(F)F)nc2)nc1` [Example 71], the concentration for half-maximal inhibition (IC50) amounted to 9.3 nM. On the same count and under the same terms, the figure for `CCS(=O)(=O)c1ccc([C@H](CO)NC(=O)c2cnc(N3C[C@H](Oc4ccc(C(F)(F)F)cc4)C[C@H]3COCCF)nc2)cc1` [Example 59, N—((R)-1-(4-(ethylsulfonyl)phenyl)-2-hydroxyethyl)-2-((2S,4R)-2-((2-fluoroethoxy)methyl)-4-(4-(trifluoromethyl)phenoxy)pyrrolidin-1-yl)pyrimidine-5-carboxamide] is 28 nM; for `CCS(=O)(=O)c1ccc([C@H](CO)NC(=O)c2cnc(N3CC[C@H](Oc4ccc(C(F)(F)F)cc4)C3)c(F)c2)cc1` [Example 81, N—((R)-1-(4-(ethylsulfonyl)phenyl)-2-hydroxyethyl)-5-fluoro-6-((S)-3-(4-(trifluoromethyl)phenoxy)pyrrolidin-1-yl)nicotinamide] it is 78 nM.
